# Read-outs that look alike come from different tables or passages of the source.
# Experiment: Example 11: plasma pharmacokinetics (toxicokinetics) of tozadenant in mice after twice daily oral administration
# Assay type: in vivo, Crl:CD1(ICR) mice
# Conditions: male, Crl:CD1(ICR), mouse, plasma, po
# Protocol: The plasma pharmacokinetics and exposure levels of tozadendant have been documented in mice after oral administration, the same route of administration as tozadenant was dosed in the oncology efficacy studies.
# The PK of tozadenant in mice was compared across a range of doses and dose frequencies. […]
# Groups of mice of the Crl:CD1(ICR) strain were dosed, as follows:
# The vehicle for the tozadenant in this mouse PK study was 1.6% (w/v) Avicel RC-591 (FMC), 0.2% (v/v) Tween 80, 0.18% (w/v) methylparaben and 0.02% (w/v) propylparaben in reverse osmosis water, pH 6.0±0.3. The 1.6% (w/v) Avicel RC-591 (FMC) was supplied by Biopolymer International, Brussels, Belgium. The 0.2% (v/v) Tween 80, 0.18% (w/v) methylparaben and 0.02% (w/v) propylparaben in reverse osmosis water, pH 6.0±0.3 was supplied by and Sigma-Aldrich Co Ltd, Poole, UK. This is the same formulation used for the mouse oncology model oral dosing.
# The test article was administered orally by gavage, as follows:
# Groups 1 to 4: Twice for one day (0 and 8 hours apart relative to initial dose)
# Group 5: Twice for one day (0 and 12 hours apart relative to initial dose)
# Blood samples for toxicokinetics (0.25 mL nominal) were taken from all toxicokinetic animals (subgroup 2), as follows:
# For animals dosed at 0, 8 or 12 hour intervals, sampling time with respect to dose was symmetrical in each animal, for example, if an animal was sampled 0.5 hours after the first dose, it was sampled 0.5 hours after the second dose. The second sample obtained from each animal was collected under terminal anaesthesia.
# Samples were taken from the orbital sinus (with the exception of Group 3 animals at the 10 hour bleed, which were taken by cardiac puncture) under isoflurane anaesthesia into K2EDTA. Samples were gently inverted to ensure mixing with anticoagulant, placed on a blood roller for at least one minute and then placed in a Kryorack until centrifugation.
# Centrifugation was carried out at approximately 4-8° C. within one hour of collection. The resultant plasma from all samples was separated, transferred to uniquely labelled clear polypropylene tubes and frozen immediately at approximately <−10 to −30° C. Samples were analyzed at Covance.
# Tozadenant was quantitated using protein precipitation followed by liquid chromatography mass spectrometry technique for quantification. This bioanalytical method was previously established and validated for tozadenant in mouse plasma.
smiles,measurement,setting,value
"COc1ccc(N2CCOCC2)c2sc(NC(=O)N3CCC(C)(O)CC3)nc12 [SYN-115, 4-hydroxy-4-methyl-piperidine-1-carboxylic acid (4-methoxy-7-morpholin-4-yl-benzothiazol-2-yl)-amide]",AUC(0-t),"100 mg/kg/day, Group 1, Male, 100 mg/kg/day (50 mg/kg/dose), oral, dosing at 0, 8 hr, read-out: AUC0-24",3520 ng·h/mL
same,AUC,"100 mg/kg/day, Group 1, Male, 100 mg/kg/day (50 mg/kg/dose), oral, dosing at 0, 8 hr, read-out: AUC8-24",1570 ng·h/mL
same,Cmax,"100 mg/kg/day, Group 1, Male, 100 mg/kg/day (50 mg/kg/dose), oral, dosing at 0, 8 hr, read-out: Cmax",764 ng/mL
same,Tmax,"100 mg/kg/day, Group 1, Male, 100 mg/kg/day (50 mg/kg/dose), oral, dosing at 0, 8 hr, read-out: Tmax",9 h
same,Tmax,"100 mg/kg/day, mice, 100 mg/kg/day (50 mg/kg/dose×2) oral, 1 hour after the second dose, read-out: Average Tmax",9 h
same,Cmax,"100 mg/kg/day, mice, 100 mg/kg/day (50 mg/kg/dose×2) oral, read-out: Average Cmax",764 ng/mL
same,AUC(0-t),"100 mg/kg/day, mice, 100 mg/kg/day (50 mg/kg/dose×2) oral, read-out: Average daily AUC0-24",3520 ng·h/mL
same,AUC(0-inf),"300 mg/kg/day, Group 2, Male, 300 mg/kg/day (150 mg/kg/dose), oral, dosing at 0, 8 hr",9930 ng·h/mL
same,AUC(0-t),"300 mg/kg/day, Group 2, Male, 300 mg/kg/day (150 mg/kg/dose), oral, dosing at 0, 8 hr, read-out: AUC0-8",5030 ng·h/mL
same,AUC(0-t),"300 mg/kg/day, Group 2, Male, 300 mg/kg/day (150 mg/kg/dose), oral, dosing at 0, 8 hr, read-out: AUC0-24",9900 ng·h/mL
same,AUC,"300 mg/kg/day, Group 2, Male, 300 mg/kg/day (150 mg/kg/dose), oral, dosing at 0, 8 hr, read-out: AUC8-24",4870 ng·h/mL
same,Cmax,"300 mg/kg/day, Group 2, Male, 300 mg/kg/day (150 mg/kg/dose), oral, dosing at 0, 8 hr, read-out: Cmax",1720 ng/mL
same,Tmax,"300 mg/kg/day, Group 2, Male, 300 mg/kg/day (150 mg/kg/dose), oral, dosing at 0, 8 hr, read-out: Tmax",8.8 h
same,half-life,"300 mg/kg/day, Group 2, Male, 300 mg/kg/day (150 mg/kg/dose), oral, dosing at 0, 8 hr, read-out: t1/2 (converted)",58.3 min
same,AUC(0-t),"1000 mg/kg/day, Group 3, Male, 1000 mg/kg/day (500 mg/kg/dose), oral, dosing at 0, 8 hr, read-out: AUC0-8",13800 ng·h/mL
same,AUC(0-t),"1000 mg/kg/day, Group 3, Male, 1000 mg/kg/day (500 mg/kg/dose), oral, dosing at 0, 8 hr, read-out: AUC0-24",29900 ng·h/mL
same,AUC,"1000 mg/kg/day, Group 3, Male, 1000 mg/kg/day (500 mg/kg/dose), oral, dosing at 0, 8 hr, read-out: AUC8-24",16100 ng·h/mL
same,Cmax,"1000 mg/kg/day, Group 3, Male, 1000 mg/kg/day (500 mg/kg/dose), oral, dosing at 0, 8 hr, read-out: Cmax",3610 ng/mL
same,Tmax,"1000 mg/kg/day, Group 3, Male, 1000 mg/kg/day (500 mg/kg/dose), oral, dosing at 0, 8 hr, read-out: Tmax",10.2 h
same,Tmax,"2000 mg/kg/day, 0, 8 hours dosing, all groups except females at 2000 mg/kg/day, read-out: Tmax (post dose, following the second dose)",0.8 to 2.2 h
same,AUC(0-inf),"2000 mg/kg/day, Group 4, Male, 2000 mg/kg/day (1000 mg/kg/dose), oral, dosing at 0, 8 hr",43100 ng·h/mL
same,AUC(0-t),"2000 mg/kg/day, Group 4, Male, 2000 mg/kg/day (1000 mg/kg/dose), oral, dosing at 0, 8 hr, read-out: AUC0-8",20500 ng·h/mL
same,AUC(0-t),"2000 mg/kg/day, Group 4, Male, 2000 mg/kg/day (1000 mg/kg/dose), oral, dosing at 0, 8 hr, read-out: AUC0-24",43000 ng·h/mL
same,AUC,"2000 mg/kg/day, Group 4, Male, 2000 mg/kg/day (1000 mg/kg/dose), oral, dosing at 0, 8 hr, read-out: AUC8-24",22500 ng·h/mL
same,Cmax,"2000 mg/kg/day, Group 4, Male, 2000 mg/kg/day (1000 mg/kg/dose), oral, dosing at 0, 8 hr, read-out: Cmax",5080 ng/mL
same,Tmax,"2000 mg/kg/day, Group 4, Male, 2000 mg/kg/day (1000 mg/kg/dose), oral, dosing at 0, 8 hr, read-out: Tmax",9 h
same,half-life,"2000 mg/kg/day, Group 4, Male, 2000 mg/kg/day (1000 mg/kg/dose), oral, dosing at 0, 8 hr, read-out: t1/2 (converted)",121 min
same,AUC(0-inf),"2000 mg/kg/day, Group 5, Male, 2000 mg/kg/day (1000 mg/kg/dose), oral, dosing at 0, 12 hr",31300 ng·h/mL
same,AUC(0-t),"2000 mg/kg/day, Group 5, Male, 2000 mg/kg/day (1000 mg/kg/dose), oral, dosing at 0, 12 hr, read-out: AUC0-12",17800 ng·h/mL
same,AUC(0-t),"2000 mg/kg/day, Group 5, Male, 2000 mg/kg/day (1000 mg/kg/dose), oral, dosing at 0, 12 hr, read-out: AUC0-24",31100 ng·h/mL
same,AUC,"2000 mg/kg/day, Group 5, Male, 2000 mg/kg/day (1000 mg/kg/dose), oral, dosing at 0, 12 hr, read-out: AUC12-24",13300 ng·h/mL
same,Cmax,"2000 mg/kg/day, Group 5, Male, 2000 mg/kg/day (1000 mg/kg/dose), oral, dosing at 0, 12 hr, read-out: Cmax",6440 ng/mL
same,Tmax,"2000 mg/kg/day, Group 5, Male, 2000 mg/kg/day (1000 mg/kg/dose), oral, dosing at 0, 12 hr, read-out: Tmax",1.1 h
same,half-life,"2000 mg/kg/day, Group 5, Male, 2000 mg/kg/day (1000 mg/kg/dose), oral, dosing at 0, 12 hr, read-out: t1/2 (converted)",81.6 min
same,Tmax,"2000 mg/kg/day, males, 0, 12 hour dosing, read-out: Tmax (following the first dose)",1.1 h
same,half-life,"mice, all dose levels where calculated, read-out: Half-lives",60 to 120 min
